Measurements reported in the CheMixHub viscosity set.
Values joined by “and” are separate entries in the source; they are usually repeats but may differ in a detail not shown here. Equal values may be shown once.

Assay: xn = mol fraction of the nth substance listed

S=C=S + ClC(Cl)(Cl)Cl
101 kPa
Conditions	viscosity [mPa·s]
293.15 K, x1 = 0.223	0.74
293.15 K, x1 = 0.526	0.52
293.15 K, x1 = 0.628	0.47
293.15 K, x1 = 0.718	0.43
293.15 K, x1 = 0.794	0.41
293.15 K, x1 = 0.85	0.39
293.15 K, x1 = 0.914	0.38
298.15 K, x1 = 0.1	0.7919
298.15 K, x1 = 0.2	0.7079
298.15 K, x1 = 0.3	0.6441
298.15 K, x1 = 0.4	0.591
298.15 K, x1 = 0.5	0.5423
298.15 K, x1 = 0.6	0.4948
298.15 K, x1 = 0.7	0.4484
298.15 K, x1 = 0.8	0.4061
298.15 K, x1 = 0.9	0.3741

O=CN1CCOCC1 + Clc1ccccc1
viscosity [mPa·s], 101 kPa
Conditions	x1 = 0.1017	x1 = 0.203	x1 = 0.3039	x1 = 0.4045	x1 = 0.5046	x1 = 0.6044	x1 = 0.7039	x1 = 0.8029	x1 = 0.9017
303.15 K	0.844	1.034	1.274	1.58	1.966	2.471	3.125	3.981	5.096
308.15 K	0.801	0.973	1.186	1.455	1.793	2.233	2.8	3.529	4.465
313.15 K	0.753	0.911	1.105	1.351	1.656	2.05	2.56	3.21	4.04

FC(F)C(F)(F)F + FCF
viscosity [mPa·s], 101 kPa
Conditions	x1 = 0.247	x1 = 0.49	x1 = 0.744
298.15 K	0.1177	0.12	0.1269
313.15 K	–	–	0.1021

C=CCN=C=S + NCCN
313.15 K, 100 kPa
Conditions	viscosity [mPa·s]
x1 = 0.15	2.956
x1 = 0.2794	6.678
x1 = 0.4515	71.46
x1 = 0.4948	155.4
x1 = 0.5496	648.5
x1 = 0.5994	2470
x1 = 0.667	61100
x1 = 0.7502	281.4
x1 = 0.851	55.46

O=C[C@H](O)[C@@H](O)[C@H](O)[C@H](O)CO + O
Conditions	viscosity
293.15 K, 101 kPa, x1 = 0.002	1.043 mPa·s
293.15 K, 101 kPa, x1 = 0.0026	1.079 mPa·s
293.15 K, 101 kPa, x1 = 0.005	1.13 mPa·s
293.15 K, 101 kPa, x1 = 0.011	1.24 mPa·s and 1.34 mPa·s
293.15 K, 101 kPa, x1 = 0.0244	1.95 mPa·s
293.15 K, 101 kPa, x1 = 0.0411	3.01 mPa·s
293.15 K, 101 kPa, x1 = 0.0625	5.4 mPa·s
293.15 K, 101.3 kPa, x1 = 0.001	1.021 mPa·s
298.15 K, 100 kPa, x1 = 0.0009	1.019 mPa·s
298.15 K, 101 kPa, x1 = 0.0002	0.9013 mPa·s
298.15 K, 101 kPa, x1 = 0.0005	0.9169 mPa·s
298.15 K, 101 kPa, x1 = 0.001	0.9634 mPa·s
298.15 K, 101 kPa, x1 = 0.0018	0.9874 mPa·s
298.15 K, 101 kPa, x1 = 0.002	0.9826 mPa·s
298.15 K, 101 kPa, x1 = 0.00413	0.9934 mPa·s
298.15 K, 101 kPa, x1 = 0.005	1.015 mPa·s
298.15 K, 101 kPa, x1 = 0.00623	1.03 mPa·s
298.15 K, 101 kPa, x1 = 0.011	1.15 mPa·s
298.15 K, 101 kPa, x1 = 0.02	1.42 mPa·s
298.15 K, 101 kPa, x1 = 0.0244	1.68 mPa·s
298.15 K, 101 kPa, x1 = 0.0411	2.48 mPa·s
298.15 K, 101 kPa, x1 = 0.0625	4.48 mPa·s
298.15 K, 101 kPa, x1 = 0.0909	8.75 mPa·s and 12.75 mPa·s
303.15 K, 100 kPa, x1 = 0.0009	0.9332 mPa·s
303.15 K, 101 kPa, x1 = 0.002	0.8392 mPa·s
303.15 K, 101 kPa, x1 = 0.004	0.8723 mPa·s
303.15 K, 101 kPa, x1 = 0.005	0.9084 mPa·s
303.15 K, 101.3 kPa, x1 = 0.001	0.814 mPa·s
308.15 K, 100 kPa, x1 = 0.0009	0.8522 mPa·s
308.15 K, 101 kPa, x1 = 0.00209	0.7871 mPa·s
308.15 K, 101 kPa, x1 = 0.004	0.7909 mPa·s
308.15 K, 101 kPa, x1 = 0.00413	0.8216 mPa·s
308.15 K, 101 kPa, x1 = 0.005	0.8313 mPa·s
308.15 K, 101 kPa, x1 = 0.008982	0.911 mPa·s
308.15 K, 101 kPa, x1 = 0.011	0.98 mPa·s and 1.05 mPa·s
308.15 K, 101 kPa, x1 = 0.01441	1.037 mPa·s
308.15 K, 101 kPa, x1 = 0.0179	1.134 mPa·s
308.15 K, 101 kPa, x1 = 0.02	1.133 mPa·s and 1.086 mPa·s
308.15 K, 101 kPa, x1 = 0.02311	1.278 mPa·s
308.15 K, 101 kPa, x1 = 0.0244	1.34 mPa·s
308.15 K, 101 kPa, x1 = 0.02991	1.442 mPa·s
308.15 K, 101 kPa, x1 = 0.03509	1.711 mPa·s
308.15 K, 101 kPa, x1 = 0.0411	1.94 mPa·s
308.15 K, 101 kPa, x1 = 0.05203	2.579 mPa·s
308.15 K, 101 kPa, x1 = 0.0591	3.084 mPa·s
308.15 K, 101 kPa, x1 = 0.0625	3.31 mPa·s
308.15 K, 101 kPa, x1 = 0.0909	6.58 mPa·s and 9 mPa·s
313.15 K, 100 kPa, x1 = 0.0009	0.7853 mPa·s
313.15 K, 101 kPa, x1 = 0.002	0.6943 mPa·s
313.15 K, 101 kPa, x1 = 0.004	0.7341 mPa·s
313.15 K, 101 kPa, x1 = 0.005	0.7858 mPa·s
313.15 K, 101 kPa, x1 = 0.011	0.81 mPa·s and 0.97 mPa·s
313.15 K, 101 kPa, x1 = 0.02	1.022 mPa·s and 0.9825 mPa·s
313.15 K, 101 kPa, x1 = 0.0244	1.19 mPa·s
313.15 K, 101 kPa, x1 = 0.0411	1.69 mPa·s
313.15 K, 101 kPa, x1 = 0.0625	2.96 mPa·s
313.15 K, 101 kPa, x1 = 0.0909	4.88 mPa·s and 5.67 mPa·s
313.15 K, 101 kPa, x1 = 0.13	13.08 mPa·s and 11.8 mPa·s
313.15 K, 101.3 kPa, x1 = 0.001	0.671 mPa·s
318.15 K, 101 kPa, x1 = 0.008982	0.756 mPa·s
318.15 K, 101 kPa, x1 = 0.011	0.71 mPa·s and 0.85 mPa·s
318.15 K, 101 kPa, x1 = 0.01441	0.861 mPa·s
318.15 K, 101 kPa, x1 = 0.0179	0.941 mPa·s
318.15 K, 101 kPa, x1 = 0.02	0.9234 mPa·s and 0.8774 mPa·s
318.15 K, 101 kPa, x1 = 0.02311	1.061 mPa·s
318.15 K, 101 kPa, x1 = 0.0244	1.05 mPa·s
318.15 K, 101 kPa, x1 = 0.02991	1.197 mPa·s
318.15 K, 101 kPa, x1 = 0.03509	1.42 mPa·s
318.15 K, 101 kPa, x1 = 0.0411	1.43 mPa·s
318.15 K, 101 kPa, x1 = 0.05203	2.141 mPa·s
318.15 K, 101 kPa, x1 = 0.0591	2.561 mPa·s
318.15 K, 101 kPa, x1 = 0.0625	2.47 mPa·s
318.15 K, 101 kPa, x1 = 0.0909	3.91 mPa·s and 4.65 mPa·s
318.15 K, 101 kPa, x1 = 0.13	10.56 mPa·s and 8 mPa·s
323.15 K, 101 kPa, x1 = 0.011	0.72 mPa·s and 0.78 mPa·s
323.15 K, 101 kPa, x1 = 0.02	0.8435 mPa·s and 0.7914 mPa·s
323.15 K, 101 kPa, x1 = 0.0244	0.97 mPa·s
323.15 K, 101 kPa, x1 = 0.0411	1.29 mPa·s
323.15 K, 101 kPa, x1 = 0.0625	2.19 mPa·s
323.15 K, 101 kPa, x1 = 0.0909	3.68 mPa·s and 4.56 mPa·s
323.15 K, 101 kPa, x1 = 0.13	8.63 mPa·s and 7.5 mPa·s
